Test results from patent publication US6506339B1, “Method of sterilization” (Biomedical Design, Inc., priority 1997, dated 2003).

Key:
Experiment in all cases: Sterilization test, Mycobacterium chelonae in sterile cups at room temperature (Example 1)
Assay type in all cases: cell-based
[1] = test system: Mycobacterium Chelonae ATCC 35752; parameters: key: (+) Indicates growth; (−) indicates no growth or complete kill; settings: 10 mM EDC+1 mM Sulfo-NHS, 20% isopropyl alcohol
Experimental: (§1) Porcine aortic roots are fixed by cross-linking according to the method described in U.S. Pat. No. 5,447,536. After fixation, the valves are stored in 10 mM HEPES, 0.85% NaCl, 20% isopropyl alcohol, pH 7.4, at 4° C. The sterility tests described in the following examples are in most cases conducted in the presence of bioprosthetic heart valve tissue; when such tissue is not present, the solutions are simply filtered through a 0.45 micron filter attached to a funnel (filter funnel). The filters are then rinsed with peptone water to eliminate residual chemicals on the membrane that may prevent growth of the organisms tested. Such membrane filters are then incubated on TSA plates at about 32° to 33° C., e.g. 32.5° C. When an aortic valve is inoculated with microorganisms for test purposes and then submitted to sterilization, the solution is filtered as described above. The aortic valve tissue is then washed for 20 minutes in a reciprocating shaker in the presence of peptone water containing Tween 80 in order to extract all indigenous spores or microorganisms from the tissue. This solution is filtered and then incubated as described above. All microbiological testing is performed in a biological laminar flow hood to prevent contamination. The shrinkage temperature and the proteolytic (collagenase and protease) degradation tests are conducted as previously described in the '536 patent. Resistance to calcification is assessed by subdermal implantation of sterilized leaflets and aortic wall coupons in young rats, as also described in the '536 U.S. patent.
(§2) Mycobacterium Chelonae ATCC 35752 (˜10^5) was inoculated in sterile cups. A 10 mM HEPES, 0.85% NaCl, pH 6.5 solution containing 10 mM EDC and 1 mM Sulfo-NHS in the presence or absence of 20% isopropyl alcohol was maintained in contact with the bacteria in the cups for various periods of time (treatment duration). The cups were maintained at room temperature, and the solutions were then filtered. The filters were then incubated at about 32-33° C. for up to 6 weeks (incubation duration) using either Trypticase Soy Agar (TSA) plates or Trypticase Soy Broth (TSB). All inoculations were done in duplicate.

[2] = test system: Mycobacterium Chelonae ATCC 35752; parameters: key: (+) Indicates growth; (−) indicates no growth; settings: 10 mM EDC+1 mM Sulfo-NHS
Experimental: as §1, §2

[3] = test system: Mycobacterium Chelonae ATCC 35752; settings: EDC plus Sulfo-NHS, 20% isopropyl alcohol
Experimental: as §1, with “All microbiological testing is performed in a biological laminar flow hood to prevent contamination. The shrinkage temperature and the proteolytic (collagenase and protease) degradation tests are conducted as previously described in the '536 patent.” left out, “patent. […]” for “patent.”

For CCN=C=NCCCN(C)C.Cl [EDC, 1-ethyl-3(3-dimethylaminopropyl)carbodiimide hydrochloride], the growth ([1]; treatment 0 hour, incubation 1 Day, TSA) was “−,−”, the growth ([1]; treatment 0 hour, incubation 1 Day, TSB) was “−,−” and the growth ([1]; treatment 0 hour, incubation 1 Week, TSA) was “−,−”. For the same compound, the growth ([1]; treatment 0 hour, incubation 1 Week, TSB) was “−,−”, the growth ([1]; treatment 12 hours, incubation 1 Day, TSA) was “−,−” and the growth ([1]; treatment 12 hours, incubation 1 Day, TSB) was “−,−”. The growth ([1]; treatment 12 hours, incubation 1 Week, TSA) was “−,−”, the growth ([1]; treatment 12 hours, incubation 1 Week, TSB) was “−,−” and the growth ([1]; treatment 12 hours, incubation 3 Week, TSA) was “−,−”. The growth ([1]; treatment 12 hours, incubation 3 Week, TSB) was “−,−”, the growth ([1]; treatment 12 hours, incubation 4 Week, TSA) was “−,−” and the growth ([1]; treatment 12 hours, incubation 4 Week, TSB) was “−,−”. The growth ([1]; treatment 12 hours, incubation 6 Week, TSA) was “−,−”, the growth ([1]; treatment 12 hours, incubation 6 Week, TSB) was “−,−” and the growth ([1]; treatment 24 hours, incubation 1 Day, TSA) was “−,−”. For the same compound, the growth ([1]; treatment 24 hours, incubation 1 Day, TSB) was “−,−”, the growth ([1]; treatment 24 hours, incubation 1 Week, TSA) was “−,−” and the growth ([1]; treatment 24 hours, incubation 1 Week, TSB) was “−,−”. For the same compound, the growth ([1]; treatment 24 hours, incubation 3 Week, TSA) was “−,−”, the growth ([1]; treatment 24 hours, incubation 3 Week, TSB) was “−,−” and the growth ([1]; treatment 24 hours, incubation 4 Week, TSA) was “−,−”. For the same compound, the growth ([1]; treatment 24 hours, incubation 4 Week, TSB) was “−,−”, the growth ([1]; treatment 24 hours, incubation 6 Week, TSA) was “−,−” and the growth ([1]; treatment 24 hours, incubation 6 Week, TSB) was “−,−”. The growth ([1]; treatment 48 hours, incubation 1 Day, TSA) was “−,−”, the growth ([1]; treatment 48 hours, incubation 1 Day, TSB) was “−,−” and the growth ([1]; treatment 48 hours, incubation 1 Week, TSA) was “−,−”. The growth ([1]; treatment 48 hours, incubation 1 Week, TSB) was “−,−”, the growth ([1]; treatment 48 hours, incubation 3 Week, TSA) was “−,−” and the growth ([1]; treatment 48 hours, incubation 3 Week, TSB) was “−,−”. The growth ([1]; treatment 48 hours, incubation 4 Week, TSA) was “−,−”, the growth ([1]; treatment 48 hours, incubation 4 Week, TSB) was “−,−” and the growth ([1]; treatment 48 hours, incubation 6 Week, TSA) was “−,−”. The growth ([1]; treatment 48 hours, incubation 6 Week, TSB) was “−,−”, the growth ([1]; treatment 72 hours, incubation 1 Day, TSA) was “−,−” and the growth ([1]; treatment 72 hours, incubation 1 Day, TSB) was “−,−”. For the same compound, the growth ([1]; treatment 72 hours, incubation 1 Week, TSA) was “−,−”, the growth ([1]; treatment 72 hours, incubation 1 Week, TSB) was “−,−” and the growth ([1]; treatment 72 hours, incubation 3 Week, TSA) was “−,−”. For the same compound, the growth ([1]; treatment 72 hours, incubation 3 Week, TSB) was “−,−”, the growth ([1]; treatment 72 hours, incubation 4 Week, TSA) was “−,−” and the growth ([1]; treatment 72 hours, incubation 4 Week, TSB) was “−,−”. For the same compound, the growth ([1]; treatment 72 hours, incubation 6 Week, TSA) was “−,−”, the growth ([1]; treatment 72 hours, incubation 6 Week, TSB) was “−,−” and the growth ([2]; 20% isopropyl alcohol, treatment 0 hour, incubation 3 Week, TSA) was “+,+”. For the same compound, the growth ([2]; 20% isopropyl alcohol, treatment 0 hour, incubation 3 Week, TSB) was “+,+”, the growth ([2]; 20% isopropyl alcohol, treatment 0 hour, incubation 4 Week, TSA) was “+,+” and the growth ([2]; 20% isopropyl alcohol, treatment 0 hour, incubation 4 Week, TSB) was “+,+”. For the same compound, the growth ([2]; 20% isopropyl alcohol, treatment 0 hour, incubation 6 Week, TSA) was “+,+”, the growth ([2]; 20% isopropyl alcohol, treatment 0 hour, incubation 6 Week, TSB) was “+,+” and the growth ([2]; no isopropyl alcohol, treatment 0 hour, incubation 1 Day, TSA) was “+,+”. For the same compound, the growth ([2]; no isopropyl alcohol, treatment 0 hour, incubation 1 Day, TSB) was “+,+”, the growth ([2]; no isopropyl alcohol, treatment 0 hour, incubation 1 Week, TSA) was “+,+” and the growth ([2]; no isopropyl alcohol, treatment 0 hour, incubation 1 Week, TSB) was “+,+”. The growth ([2]; no isopropyl alcohol, treatment 0 hour, incubation 3 Week, TSA) was “+,+”, the growth ([2]; no isopropyl alcohol, treatment 0 hour, incubation 3 Week, TSB) was “+,+” and the growth ([2]; no isopropyl alcohol, treatment 0 hour, incubation 4 Week, TSA) was “+,+”. For the same compound, the growth ([2]; no isopropyl alcohol, treatment 0 hour, incubation 4 Week, TSB) was “+,+”, the growth ([2]; no isopropyl alcohol, treatment 0 hour, incubation 6 Week, TSA) was “+,+” and the growth ([2]; no isopropyl alcohol, treatment 0 hour, incubation 6 Week, TSB) was “+,+”. For the same compound, the growth ([2]; no isopropyl alcohol, treatment 12 hours, incubation 1 Day, TSA) was “+,+”, the growth ([2]; no isopropyl alcohol, treatment 12 hours, incubation 1 Day, TSB) was “+,+” and the growth ([2]; no isopropyl alcohol, treatment 12 hours, incubation 1 Week, TSA) was “+,+”. For the same compound, the growth ([2]; no isopropyl alcohol, treatment 12 hours, incubation 1 Week, TSB) was “+,+”, the growth ([2]; no isopropyl alcohol, treatment 12 hours, incubation 3 Week, TSA) was “+,+” and the growth ([2]; no isopropyl alcohol, treatment 12 hours, incubation 3 Week, TSB) was “+,+”. The growth ([2]; no isopropyl alcohol, treatment 12 hours, incubation 4 Week, TSA) was “+,+”, the growth ([2]; no isopropyl alcohol, treatment 12 hours, incubation 4 Week, TSB) was “+,+” and the growth ([2]; no isopropyl alcohol, treatment 12 hours, incubation 6 Week, TSA) was “+,+”. For the same compound, the growth ([2]; no isopropyl alcohol, treatment 12 hours, incubation 6 Week, TSB) was “+,+”, the growth ([2]; no isopropyl alcohol, treatment 24 hours, incubation 1 Day, TSA) was “−,−” and the growth ([2]; no isopropyl alcohol, treatment 24 hours, incubation 1 Day, TSB) was “−,−”. The growth ([2]; no isopropyl alcohol, treatment 24 hours, incubation 1 Week, TSA) was “+,+”, the growth ([2]; no isopropyl alcohol, treatment 24 hours, incubation 1 Week, TSB) was “+,+” and the growth ([2]; no isopropyl alcohol, treatment 24 hours, incubation 3 Week, TSA) was “+,+”. The growth ([2]; no isopropyl alcohol, treatment 24 hours, incubation 3 Week, TSB) was “+,+”, the growth ([2]; no isopropyl alcohol, treatment 24 hours, incubation 4 Week, TSA) was “+,+” and the growth ([2]; no isopropyl alcohol, treatment 24 hours, incubation 4 Week, TSB) was “+,+”. The growth ([2]; no isopropyl alcohol, treatment 24 hours, incubation 6 Week, TSA) was “+,+”, the growth ([2]; no isopropyl alcohol, treatment 24 hours, incubation 6 Week, TSB) was “+,+” and the growth ([2]; no isopropyl alcohol, treatment 48 hours, incubation 1 Day, TSA) was “−,−”. For the same compound, the growth ([2]; no isopropyl alcohol, treatment 48 hours, incubation 1 Day, TSB) was “−,−”, the growth ([2]; no isopropyl alcohol, treatment 48 hours, incubation 1 Week, TSA) was “−,−” and the growth ([2]; no isopropyl alcohol, treatment 48 hours, incubation 1 Week, TSB) was “−,−”. For the same compound, the growth ([2]; no isopropyl alcohol, treatment 48 hours, incubation 3 Week, TSA) was “−,−”, the growth ([2]; no isopropyl alcohol, treatment 48 hours, incubation 3 Week, TSB) was “−,−” and the growth ([2]; no isopropyl alcohol, treatment 48 hours, incubation 4 Week, TSA) was “−”. For the same compound, the growth ([2]; no isopropyl alcohol, treatment 48 hours, incubation 4 Week, TSB) was “+”, the growth ([2]; no isopropyl alcohol, treatment 48 hours, incubation 6 Week, TSA) was “−” and the growth ([2]; no isopropyl alcohol, treatment 48 hours, incubation 6 Week, TSB) was “+”. For the same compound, the growth ([2]; no isopropyl alcohol, treatment 72 hours, incubation 1 Day, TSA) was “−,−”, the growth ([2]; no isopropyl alcohol, treatment 72 hours, incubation 1 Day, TSB) was “−,−” and the growth ([2]; no isopropyl alcohol, treatment 72 hours, incubation 1 Week, TSA) was “−,−”. The growth ([2]; no isopropyl alcohol, treatment 72 hours, incubation 1 Week, TSB) was “−,−”, the growth ([2]; no isopropyl alcohol, treatment 72 hours, incubation 3 Week, TSA) was “−,−” and the growth ([2]; no isopropyl alcohol, treatment 72 hours, incubation 3 Week, TSB) was “−,−”. For the same compound, the growth ([2]; no isopropyl alcohol, treatment 72 hours, incubation 4 Week, TSA) was “−,−”, the growth ([2]; no isopropyl alcohol, treatment 72 hours, incubation 4 Week, TSB) was “−,−” and the growth ([2]; no isopropyl alcohol, treatment 72 hours, incubation 6 Week, TSA) was “−”. For the same compound, the growth ([2]; no isopropyl alcohol, treatment 72 hours, incubation 6 Week, TSB) was “+” and the “sterilization treatment time that kills all Mycobacterium chelonae” value [3] was at most 12 h.
